Experimental data as given in patent publication US12447147B2, “Methods of treating, ameliorating, and/or preventing cancer using pyrvinium compositions” (Thomas Jefferson University, priority 2019, dated 2025).
Like-named read-outs stand apart in the source and are kept apart here.

Experiments:
COX2 DNA binding to HuR = COX2 DNA binding to HuR (Homo sapiens, UniProt Q15717); test: Inhibition of COX2 DNA binding to HuR; details: for Mean Max % I: mean of n1 and n2; for Max % I, n2: replicate n2; for Max % I, n1: replicate n1
VEGF DNA binding to HuR = VEGF DNA binding to HuR (Homo sapiens, UniProt Q15717); test: Inhibition of VEGF DNA binding to HuR; details: for Mean Max % I: mean of n1 and n2; for Max % I, n2: replicate n2; for Max % I, n1: replicate n1
[1] = In vivo models, pyrvinium pamoate and ademaciclib (FIGS. 14A-14C)
[2] = target: HuR binding to target mRNA COX2 (Homo sapiens, UniProt Q15717); test: Inhibition of HuR binding to target mRNA COX2; details: given as a range
[3] = target: HuR binding to target mRNA VEGF (Homo sapiens, UniProt Q15717); test: Inhibition of HuR binding to target mRNA VEGF; details: given as a range
PDA = test: Tumor volume, PARP inhibitor with or without shHuR; format: in vivo
Source text: HuR (ELAVL1) is an RNA binding protein that, upon exposure to a variety of intrinsic cancer related stressors, binds to a network of pro-survival mRNAs leading to an increase in their stability and translation. […] HuR CRISPR knockout PDA cell lines have a xenograft lethal phenotype. […] HuR is also important for oxaliplatin resistance in PDA. Utilizing a tumor microarray (TMA) from resected patient samples of PDA, it was discovered that 79% (n=80) of patients were positive for cytoplasmic HuR, with little to no cytoplasmic localization detected in adjacent normal tissues. HuR is a driver of chemoresistance in PDA and thus a prime target for re-sensitizing PDA cells to current therapies. While several compounds have been investigated as HuR inhibitors, to date there are no clinically viable HuR inhibitors.

HS766T = test: 5 day viability assay (Pico Green), HS766T; format: cell-based; details: 120 h
Procedure: (§1) The efficacy of pyrvinium pamoate was determined in a panel of PDA cell lines.

PDX-X139 = test: 5 day viability assay (Pico Green), PDX cell line; format: cell-based; details: 120 h
Source text: (§2) KPC mice have both an activating KRAS mutation (KRAS is mutated in up to 90% of PDA) and a loss of P53 driven by a pancreas specific Cre promoter. The KTC organoid model is derived from a GEMM that has a driver KRAS mutation and greater than 2-fold overexpression of HuR, specifically in the pancreas.

CFPAC = test: 5 day viability assay (Pico Green), CFPAC; format: cell-based; details: 120 h
Procedure: as §1

MIA-PaCa2 cells = test: MIA-PaCa2 flank tumor growth in mice; format: in vivo, nude mice; details: for tumor growth: 1 mg/kg IP 3 times weekly vs vehicle, MIA-PaCa2 flank tumors started at 100 mm^3
Source text: as §2

[4] = Synergy with CDK4/6 inhibitors (FIGS. 13A-13F)
KTC Organoids = test: 5 day viability assay (Pico Green), KTC organoids; format: cell-based; details: Mus musculus, 120 h
Source text: as §2

MIA-PaCa2 = test: 5 day viability assay (Pico Green), MIA-PaCa2; format: cell-based; details: Homo sapiens, MIA PaCa-2, 120 h
Procedure: as §1

cyclin Dl = test: Cyclin D1 knockdown (FIG. 12)
Panc-1 = test: 5 day viability assay (Pico Green), Panc-1; format: cell-based; details: Homo sapiens, 120 h
Procedure: as §1

[5] = oral tablets or suspensions; urine up to 96 hours after each dose; cited from earlier work
[6] = mean of n1 and n2, read-out: Mean IC50
[7] = replicate n1, read-out: IC50, n1
[8] = replicate n2, read-out: IC50, n2

Chain of HuR binding to target mRNA VEGF (Q15717 whole entry): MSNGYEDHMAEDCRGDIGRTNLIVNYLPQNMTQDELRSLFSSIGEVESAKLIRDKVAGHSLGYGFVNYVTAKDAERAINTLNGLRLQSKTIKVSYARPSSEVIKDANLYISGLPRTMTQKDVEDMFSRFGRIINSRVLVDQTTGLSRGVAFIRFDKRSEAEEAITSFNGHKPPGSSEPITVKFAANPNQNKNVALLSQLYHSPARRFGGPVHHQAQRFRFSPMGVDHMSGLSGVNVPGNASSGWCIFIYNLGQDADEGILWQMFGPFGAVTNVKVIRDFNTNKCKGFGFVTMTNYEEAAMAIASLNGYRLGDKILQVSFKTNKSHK
Chain of VEGF DNA binding to HuR (Q15717 whole entry): as above
Chain of HuR binding to target mRNA COX2 (Q15717 whole entry): as above
Chain of COX2 DNA binding to HuR (Q15717 whole entry): as above

Mean Max % I (COX2 DNA binding to HuR) [%]	IC50 (COX2 DNA binding to HuR; [6]) [nM]	IC50 (COX2 DNA binding to HuR; [7]) [nM]	Max % I, n2 (COX2 DNA binding to HuR) [%]	IC50 (COX2 DNA binding to HuR; [8]) [nM]	Mean Max % I (VEGF DNA binding to HuR) [%]	IC50 (VEGF DNA binding to HuR; [6]) [nM]	IC50 (VEGF DNA binding to HuR; [7]) [nM]	Max % I, n2 (VEGF DNA binding to HuR) [%]	IC50 (VEGF DNA binding to HuR; [8]) [nM]	Max % I, n1 (COX2 DNA binding to HuR) [%]	Max % I, n1 (VEGF DNA binding to HuR) [%]	Compound	further results
83.8	2950	2220	84.1	3910	78.3	5410	5050	74.9	5790	–	–	CC(=O)O[C@H]1C(=O)[C@@]2(C)[C@H]([C@H](OC(=O)c3ccccc3)[C@]3(O)C[C@H](OC(=O)[C@H](O)[C@@H](NC(=O)c4ccccc4)c4ccccc4)C(C)=C1C3(C)C)[C@]1(OC(C)=O)CO[C@@H]1C[C@@H]2O [Paclitaxel]	–
100.0	5470	4080	100.0	7340	100.0	7380	6100	100.0	8930	100.0	100.0	Dihydro-tashinone	–
–	> 20000	> 20000	100.0	> 20000	–	> 20000	> 20000	–	> 20000	100.0	–	Nc1ccn([C@@H]2O[C@H](CO)[C@@H](O)C2(F)F)c(=O)n1 [Gemcitabine]	IC50 [2]: > 20000 nM; IC50 [3]: > 20000 nM
81.6	674	593	82.1	767	78.7	1290	1280	71.9	1300	81.1	85.6	COc1ccc(C(CC(=O)N2CCCC2)c2c(OC)cc(OC)c3c(-c4ccccc4)cc(=O)oc23)cc1 (stereo not drawn) [CMLD2]	–
100.0	33	33	100.0	32	99.8	16	15	99.5	17	100.0	100.0	Cc1occ2c1C(=O)c1c(O)ccc(O)c1C2 [MS444]	–
92.7	29	28	92.4	30	74.7	144	167	72.4	124	92.9	77.0	Verteporfin	–

Continued, compound first:

Compound	Mean Max % I (COX2 DNA binding to HuR) [%]	IC50 (COX2 DNA binding to HuR; [6]) [nM]	IC50 (COX2 DNA binding to HuR; [7]) [nM]	Max % I, n2 (COX2 DNA binding to HuR) [%]	IC50 (COX2 DNA binding to HuR; [8]) [nM]	Mean Max % I (VEGF DNA binding to HuR) [%]	IC50 (VEGF DNA binding to HuR; [6]) [nM]	IC50 (VEGF DNA binding to HuR; [7]) [nM]	Max % I, n2 (VEGF DNA binding to HuR) [%]	IC50 (VEGF DNA binding to HuR; [8]) [nM]	Max % I, n1 (COX2 DNA binding to HuR) [%]	Max % I, n1 (VEGF DNA binding to HuR) [%]	further results
CCN1CCN(Cc2ccc(Nc3ncc(F)c(-c4cc(F)c5nc(C)n(C(C)C)c5c4)n3)nc2)CC1 [ademaciclib]	–	–	–	–	–	–	–	–	–	–	–	–	efficacy in in vivo models [1]: efficacious
O=C(c1cc(Cc2n[nH]c(=O)c3ccccc23)ccc1F)N1CCN(C(=O)C2CC2)CC1 [olaparib]	–	–	–	–	–	–	–	–	–	–	–	–	reduction in tumor volume (PDA; combined with shHuR (DOX-inducible)): 9.3 fold; reduction in tumor volume (PDA; olaparib alone): 5.6 fold
Cc1cc(/C=C/c2ccc3cc(N(C)C)ccc3[n+]2C)c(C)n1-c1ccccc1 [PP, pyrvinium pamoate]	89.3	198	340	89.8	115	86.8	149	187	86.5	118	88.8	87.2	IC50 (HS766T): 93 nM; IC50 (PDX-X139): 9 nM; IC50 [2]: 207 to 453 nM; IC50 (CFPAC): 21 nM; IC50 [3]: 203 to 416 nM; tumor growth (MIA-PaCa2 cells): reduced tumor growth; tumor growth (MIA-PaCa2 cells; listed as pyrvinium pamoate): significant decrease; mouse weights (MIA-PaCa2 cells; 1 mg/kg IP 3 times weekly, MIA-PaCa2 tumor-bearing mice): no changes; effect with CDK4/6 inhibitors [4]: synergistic effect; efficacy in in vivo models [1]: efficacious; IC50 (KTC Organoids): 93 nM; IC50 (MIA-PaCa2): 40 nM; knockdown of cyclin Dl (cyclin Dl): causes a knockdown; IC50 (Panc-1): 92 nM; urine levels of pyrvinium vs the 24 hr prior to administration [5]: not significantly different
O=C1[O][Pt]2([NH][C@@H]3CCCC[C@H]3[NH]2)[O]C1=O [Oxaliplatin]	–	> 20000	> 20000	100.0	> 20000	–	> 20000	> 20000	–	> 20000	100.0	–	IC50 [2]: > 20000 nM; IC50 [3]: > 20000 nM
Cc1cccc2c3c(ccc12)C1=C(C(=O)C3=O)[C@@H](C)CO1 [DHTS]	94.0	599	1080	88.1	332	92.9	1500	1070	99.2	2120	100.0	86.5	–
